Results published in US20260069606A1, “Oxidative Stress and Diabetes Treatment with Cobinamide” (The Regents of the University of California, priority 2022, published 2026).

Columns and labels:
[1] = test system: hearts of diabetic mice; assay: Cardiac fibrosis (collagen deposition, Mallory trichrome) in diabetic mice; format: in vivo; settings: three months histidyl-cobinamide in drinking water
Method: FIGS. 4A-4K. Cobinamide Rescues Flies from Paraquat Poisoning and Prevents Abnormal Lipid and Protein Oxidation, DNA Damage, and Fibrosis in the Hearts of Diabetic Mice. FIG. 4A. At time zero, 10 fruit flies (D. melanogaster) were transferred to vials with food to which either phosphate-buffered saline (PBS), 0.8 mM of the indicated drugs, 20 mM paraquat (PQ), or 20 mM paraquat with 0.8 mM of the indicated drugs had been added. The number of live flies was counted each day for 7 d. The experiment was repeated seven times, for a total of 70 flies per condition. The percent surviving flies was calculated; error bars represent standard deviations and are shown in one direction only for sake of clarity. FIGS. 4B-4K. […] The amount of 8-isoprostane (FIG. 4B) was measured by ELISA, protein oxidation (FIGS. 4C-4D) was assessed by immunoblotting, and nitrotyrosine content (FIGS. 4E-4F) was assessed by immunohistochemistry. DNA damage was assessed by 8-OH-deoxyguanosine staining (FIGS. 4G-4H) and a long amplicon qPCR-based assay (FIG. 4I). Cardiac fibrosis (FIGS. 4J-4K) was assessed by Mallory trichrome staining, which stains collagen blue. […] For Panels C, D, and I, frozen heart samples were selected randomly from each of the four groups and were analyzed. For Panel D, blots were analyzed by densitometric scanning using Li-Cor Odyssey software, with the density of each lane normalized to the actin band. […]

[2] = test system: COS-7 cells
Method: FIGS. 3A-3H. […] FIGS. 3A-3B. […] FIG. 3A. […] FIG. 3B. […] FIGS. 3C-3D. […] FIG. 3D. […] FIGS. 3E-3F. […] FIG. 3E. Representative blots are shown. […] FIG. 3F. […] FIG. 3G. […] FIG. 3H.
Finally, whether cobinamide could alleviate the effects of oxidative stress induced by yet another mechanism in a different cell type was tested using paraquat-treated COS-7 cells. Paraquat generates O2·^− through a redox cycling mechanism and increases both intracellular O2·^− and H2O2^42.

## C/C1=C2/[N-][C@H]([C@H](CC(N)=O)[C@@]2(C)CCC(=O)NC[C@@H](C)O)[C@]2(C)N=C(/C(C)=C3N=C(/C=C4N=C1[C@@H](CCC(N)=O)C\4(C)C)[C@@H](CCC(N)=O)[C@]\3(C)CC(N)=O)[C@@H](CCC(N)=O)[C@]2(C)CC(N)=O.[Co+3] [cobinamide, aquohydroxo-cobinamide]
[1]
  Collagen content in hearts of diabetic mice: reduced collagen content in the hearts of the diabetic mice essentially to that of non-diabetic mice
[2]; COS-7, 1 mM paraquat 3 h, 100 μM drug, counted 48 h later
  Cell growth of paraquat-treated cells: ~80 % of the control value
[2]; COS-7, no paraquat
  Effect on cell growth, drug alone: no effect on cell growth
